Patent publication US11191742B2, “Methods of treating neurodegenerative disorders in a particular population” (ALZHEON, INC., priority 2015, dated 2021)

Tests used:
[1] = tested on: APOE4+ patients with Alzheimer's disease; test: Phase 3 trials of tramiprosate, ADAS-Cog score, all APOE4+ patients; format: in vivo, human; settings: for ADAS-Cog Score Change over Standard of Care (Δ improvement vs control): All APOE4+ patients ≤85 years
Procedure: (§1) The delta value in all of these tables is calculated by measuring the increase in score over baseline for each patient in a treatment group and obtaining the mean increase for such group and then subtracting that value from the mean increase in score over baseline for all patients in the placebo group. Thus, a positive delta value in these tables represents an improvement over the placebo group. Phase 3 human clinical trials of tramiprosate to treat Alzheimer's disease at doses of 100 mg BID and 150 mg BID for up to 78 weeks were run in both North America and Europe (1691 total patients enrolled). Placebos in both trials were treatment with donepezil either alone or in combination with memantine. ADAS-Cog scores and CDR-SB scores were obtained every 13 weeks for patients that remained in the trial. The patients were genotyped for APOE4 and the severity of their disease was measured using MMSE prior to the beginning of treatment. The data from both trials were merged for certain statistical analyses. […] We then performed additional subgroup analysis, subgrouping by APOE4 genotype/allele status (APOE4 heterozygous or APOE4 homozygous) and by disease severity (mild vs moderate) to determine if the number of c alleles and/or the severity of disease predicted a better outcome of tramiprosate therapy. […] In Table 1, *control treatment is donepezil either alone or in combination with memantine. Positive delta values quantitate the amount by which average increase in ADAS-Cog Score points above baseline for the control group exceeded the average increase in ADAS-Cog Score points above baseline for the treatment group.

[2] = tested on: APOE4+ patients with Alzheimer's disease; test: Phase 3 trials of tramiprosate, CDR-SB score, all APOE4+ patients; format: in vivo, human; settings: for CDR-SB Score Change over Standard of Care (Δ improvement vs control): All APOE4+ patients ≤85 years
Procedure: as §1, with “Table 2,” for “Table 1,”, “in CDR-SB” for “in ADAS-Cog”

[3] = APOE4+ subgroup, both 100 mg and 150 mg treatment groups
[4] = Mild (MMSE 20-26), 100 mg BID, 52 weeks
[5] = Mild (MMSE 20-26), 100 mg BID, 65 weeks
[6] = Mild (MMSE 20-26), 100 mg BID, 78 weeks
[7] = Mild (MMSE 20-26), 150 mg BID, 52 weeks
[8] = Mild (MMSE 20-26), 150 mg BID, 65 weeks
[9] = Mild (MMSE 20-26), 150 mg BID, 78 weeks
[10] = Mild-to-Moderate (MMSE 16-26), 100 mg BID, 52 weeks
[11] = Mild-to-Moderate (MMSE 16-26), 100 mg BID, 65 weeks
[12] = Mild-to-Moderate (MMSE 16-26), 100 mg BID, 78 weeks
[13] = Mild-to-Moderate (MMSE 16-26), 150 mg BID, 52 weeks
[14] = Mild-to-Moderate (MMSE 16-26), 150 mg BID, 65 weeks
[15] = Mild-to-Moderate (MMSE 16-26), 150 mg BID, 78 weeks
[16] = Moderate (MMSE 16-19), 100 mg BID, 52 weeks
[17] = Moderate (MMSE 16-19), 100 mg BID, 65 weeks
[18] = Moderate (MMSE 16-19), 100 mg BID, 78 weeks
[19] = Moderate (MMSE 16-19), 150 mg BID, 52 weeks
[20] = Moderate (MMSE 16-19), 150 mg BID, 65 weeks
[21] = Moderate (MMSE 16-19), 150 mg BID, 78 weeks

In the case of `NCCCS(=O)(=O)O` [Tramiprosate, 3-amino-1-propanesulfonic acid], the “Effect on ADAS-Cog compared with the placebo” value [1, 3] is reported as “statistically significant effect”, the “ADAS-Cog Score Change over Standard of Care (Δ improvement vs control)” value [1, 4] is reported as 0.82 points and the “ADAS-Cog Score Change over Standard of Care (Δ improvement vs control)” value [1, 5] is reported as 0.99 points. For the same molecule, the “ADAS-Cog Score Change over Standard of Care (Δ improvement vs control)” value [1, 6] was 1.3 points, the “ADAS-Cog Score Change over Standard of Care (Δ improvement vs control)” value [1, 7] was 0.17 points and the “ADAS-Cog Score Change over Standard of Care (Δ improvement vs control)” value [1, 8] was 0.71 points. For the same molecule, the “ADAS-Cog Score Change over Standard of Care (Δ improvement vs control)” value [1, 9] was 0.27 points, the “ADAS-Cog Score Change over Standard of Care (Δ improvement vs control)” value [1, 10] was 1.67 points and the “ADAS-Cog Score Change over Standard of Care (Δ improvement vs control)” value [1, 11] was 1.82 points. The “ADAS-Cog Score Change over Standard of Care (Δ improvement vs control)” value [1, 12] was 2.03 points, the “ADAS-Cog Score Change over Standard of Care (Δ improvement vs control)” value [1, 13] was 0.95 points and the “ADAS-Cog Score Change over Standard of Care (Δ improvement vs control)” value [1, 14] was 1.23 points. The “ADAS-Cog Score Change over Standard of Care (Δ improvement vs control)” value [1, 15] was 0.77 points, the “ADAS-Cog Score Change over Standard of Care (Δ improvement vs control)” value [1, 16] was 3.45 points and the “ADAS-Cog Score Change over Standard of Care (Δ improvement vs control)” value [1, 17] was 3.45 points. The “ADAS-Cog Score Change over Standard of Care (Δ improvement vs control)” value [1, 18] was 3.32 points, the “ADAS-Cog Score Change over Standard of Care (Δ improvement vs control)” value [1, 19] was 2.52 points and the “ADAS-Cog Score Change over Standard of Care (Δ improvement vs control)” value [1, 20] was 2.23 points. The “ADAS-Cog Score Change over Standard of Care (Δ improvement vs control)” value [1, 21] was 1.57 points, the “Effect on CDR-SB compared with the placebo” value [2, 3] was “statistically significant effect” and the “CDR-SB Score Change over Standard of Care (Δ improvement vs control)” value [2, 4] was 0.14 points. For the same molecule, the “CDR-SB Score Change over Standard of Care (Δ improvement vs control)” value [2, 5] was 0.34 points, the “CDR-SB Score Change over Standard of Care (Δ improvement vs control)” value [2, 6] was 0.35 points and the “CDR-SB Score Change over Standard of Care (Δ improvement vs control)” value [2, 7] was 0.16 points. For the same molecule, the “CDR-SB Score Change over Standard of Care (Δ improvement vs control)” value [2, 8] was 0.2 points, the “CDR-SB Score Change over Standard of Care (Δ improvement vs control)” value [2, 9] was 0.18 points and the “CDR-SB Score Change over Standard of Care (Δ improvement vs control)” value [2, 10] was 0.26 points. For the same molecule, the “CDR-SB Score Change over Standard of Care (Δ improvement vs control)” value [2, 11] was 0.5 points, the “CDR-SB Score Change over Standard of Care (Δ improvement vs control)” value [2, 12] was 0.55 points and the “CDR-SB Score Change over Standard of Care (Δ improvement vs control)” value [2, 13] was 0.44 points. For the same molecule, the “CDR-SB Score Change over Standard of Care (Δ improvement vs control)” value [2, 14] was 0.5 points, the “CDR-SB Score Change over Standard of Care (Δ improvement vs control)” value [2, 15] was 0.6 points and the “CDR-SB Score Change over Standard of Care (Δ improvement vs control)” value [2, 16] was 0.56 points. For the same molecule, the “CDR-SB Score Change over Standard of Care (Δ improvement vs control)” value [2, 17] was 0.83 points, the “CDR-SB Score Change over Standard of Care (Δ improvement vs control)” value [2, 18] was 0.98 points and the “CDR-SB Score Change over Standard of Care (Δ improvement vs control)” value [2, 19] was 1.00 points. For the same molecule, the “CDR-SB Score Change over Standard of Care (Δ improvement vs control)” value [2, 20] was 1.12 points and the “CDR-SB Score Change over Standard of Care (Δ improvement vs control)” value [2, 21] was 1.53 points.
